# Measurements taken from paper PMC11129182, “Development of Inhibitors, Probes, and PROTAC Provides a Complete Toolbox to Study PARK7 in the Living Cell” (Journal of Medicinal Chemistry, 2024).
# Target: T1, PARK7 (Homo sapiens, UniProt Q99497)
# T1 sequence (Q99497 1-189): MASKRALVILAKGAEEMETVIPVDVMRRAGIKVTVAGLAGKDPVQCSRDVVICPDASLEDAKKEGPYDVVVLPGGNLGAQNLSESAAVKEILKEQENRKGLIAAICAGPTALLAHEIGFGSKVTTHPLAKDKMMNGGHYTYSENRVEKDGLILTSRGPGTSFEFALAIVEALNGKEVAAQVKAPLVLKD
# Assay: High-throughput screen of the crude compound library, PARK7 fluorescence polarization (FP) assay with FP reagent JYQ-107
# Type: biochemical
# Conditions: 1.25 µM, crude compound library; read-out: HTS FP assay %Inhibition (1.25 µM)
# Description: Therefore, taking JYQ-88 as a starting point, we conducted an optimization to further improve the molecule in terms of inhibitory potency, specificity, and cellular uptake. […] First, a small tailored library was designed and synthesized to investigate whether the introduction of larger, hydrophilic substituents on JYQ-88 would enhance the interaction with the PARK7 pocket. […] The second approach involved the generation of a compound library containing diverse substituents at the azidomethyl position. […] We next performed a high-throughput screen of this crude compound library using our in-house developed PARK7 fluorescence polarization (FP) assay.[15]
row,Compound,inhibition at 1.25 µM
1,Cn1cc(S(=O)(=O)NCc2ccco2)cc1C(=O)N1CCc2nc(NC(=O)[C@@H]3CCN(C#N)C3)sc2C1 [compound 73],82.4%
2,N#CN1CC[C@@H](C(=O)Nc2nc3c(s2)CN(C(=O)Cc2cccc(OCc4ccccn4)c2)CC3)C1 [compound 74],82.1%
3,Cc1nc(-c2ncccn2)sc1C(=O)N1CCc2nc(NC(=O)[C@@H]3CCN(C#N)C3)sc2C1 [compound 75],72%
4,N#CN1CC[C@@H](C(=O)Nc2nc3c(s2)CN(C(=O)c2cn(CC(=O)N4CCCC4)nn2)CC3)C1 [compound 77],84.1%
5,COc1ccccc1-c1nnc(CC(=O)N2CCc3nc(NC(=O)[C@@H]4CCN(C#N)C4)sc3C2)o1 [compound 78],74.3%
6,Cc1ccc(N(CCC(=O)N2CCc3nc(NC(=O)[C@@H]4CCN(C#N)C4)sc3C2)S(=O)(=O)c2ccccc2)cc1 [compound 79],87.6%
7,Cn1nccc1[C@@H]1OCCC[C@H]1C(=O)N1CCc2nc(NC(=O)[C@@H]3CCN(C#N)C3)sc2C1 [compound 80],68.5%
8,N#CN1CC[C@@H](C(=O)Nc2nc3c(s2)CN(C(=O)c2cc(-c4ccc(Br)cc4)ns2)CC3)C1 [compound 81],80.2%
9,Cn1ncc(C2CC2)c1C(=O)N1CCc2nc(NC(=O)[C@@H]3CCN(C#N)C3)sc2C1 [compound 82],71.4%
10,N#CN1CC[C@@H](C(=O)Nc2nc3c(s2)CN(C(=O)c2noc(-c4cccc(Cl)c4)n2)CC3)C1 [compound 85],63%
11,Cc1c(S(=O)(=O)N2CCC(C(=O)N3CCc4nc(NC(=O)[C@@H]5CCN(C#N)C5)sc4C3)CC2)cnn1C [compound 86],70.5%
12,Cc1nnnn1-c1cc(C(=O)N2CCc3nc(NC(=O)[C@@H]4CCN(C#N)C4)sc3C2)cc(C(F)(F)F)c1 [compound 87],86.5%
13,CC1CCN(c2ncc(C(=O)N3CCc4nc(NC(=O)[C@@H]5CCN(C#N)C5)sc4C3)s2)CC1 [compound 88],77.3%
14,N#CN1CC[C@@H](C(=O)Nc2nc3c(s2)CN(C(=O)C2CCN(c4ccc(=O)[nH]n4)CC2)CC3)C1 [compound 89],68.2%
15,N#CN1CC[C@@H](C(=O)Nc2nc3c(s2)CN(C(=O)c2cnn(CC4CCCCO4)c2)CC3)C1 (some centres unmarked) [compound 90],81.3%
16,Cc1cc(C(=O)N2CCc3nc(NC(=O)[C@@H]4CCN(C#N)C4)sc3C2)c(C2CC2)s1 [compound 91],82.6%
17,N#CN1CC[C@@H](C(=O)Nc2nc3c(s2)CN(C(=O)c2ccc(-n4ccnc4)nn2)CC3)C1 [compound 92],64.4%
18,N#CN1CC[C@@H](C(=O)Nc2nc3c(s2)CN(C(=O)c2c(-c4ccccc4)noc2C(F)F)CC3)C1 [compound 93],60.9%
19,N#CN1CC[C@@H](C(=O)Nc2nc3c(s2)CN(C(=O)C2(c4ccccc4Cl)CCOCC2)CC3)C1 [compound 94],65.7%
20,Cc1noc(C)c1Cc1ccc(C(=O)N2CCc3nc(NC(=O)[C@@H]4CCN(C#N)C4)sc3C2)o1 [compound 95],81.3%
21,Cc1cc(NS(=O)(=O)c2cccc(C(=O)N3CCc4nc(NC(=O)[C@@H]5CCN(C#N)C5)sc4C3)c2)no1 [compound 96],77.9%
22,CN1CCN(C(=O)C2CC=CCC2C(=O)N2CCc3nc(NC(=O)[C@@H]4CCN(C#N)C4)sc3C2)CC1 (some centres unmarked) [compound 97],72.8%
23,N#CN1CC[C@@H](C(=O)Nc2nc3c(s2)CN(C(=O)c2ccc(S(=O)(=O)N4CCOCC4)cc2)CC3)C1 [compound 98],78.4%
24,N#CN1CC[C@@H](C(=O)Nc2nc3c(s2)CN(C(=O)Cc2csc(-n4cccc4)n2)CC3)C1 [compound 99],86.7%
25,Cc1cc(-c2nc(C)sc2CC(=O)N2CCc3nc(NC(=O)[C@@H]4CCN(C#N)C4)sc3C2)c(C)s1 [compound 100],75.4%
26,N#CN1CC[C@@H](C(=O)Nc2nc3c(s2)CN(C(=O)C2CC(=O)N(CCOc4ccccc4Cl)C2)CC3)C1 (some centres unmarked) [compound 101],79.1%
27,N#CN1CC[C@@H](C(=O)Nc2nc3c(s2)CN(C(=O)c2ccc(-n4ncc(Cl)c(Cl)c4=O)cc2)CC3)C1 [compound 102],69.3%
28,N#CN1CC[C@@H](C(=O)Nc2nc3c(s2)CN(C(=O)c2ccc(CN4CCOCC4)cc2)CC3)C1 [compound 103],86.4%
29,N#CN1CC[C@@H](C(=O)Nc2nc3c(s2)CN(C(=O)c2cnc(-c4ccco4)s2)CC3)C1 [compound 104],62.8%

# Second part, the compound after the results:
row,inhibition at 1.25 µM,Compound
1,85.3%,N#CN1CC[C@@H](C(=O)Nc2nc3c(s2)CN(C(=O)Cc2csc(-c4cccs4)n2)CC3)C1 [compound 105]
2,85.1%,N#CN1CC[C@@H](C(=O)Nc2nc3c(s2)CN(C(=O)c2csc(-c4ccccn4)n2)CC3)C1 [compound 106]
3,82.7%,Cc1noc(C)c1COc1ccc(CC(=O)N2CCc3nc(NC(=O)[C@@H]4CCN(C#N)C4)sc3C2)cc1 [compound 107]
4,68.1%,N#CN1CC[C@@H](C(=O)Nc2nc3c(s2)CN(C(=O)CC2=NN(c4ncc(C(F)(F)F)cc4Cl)C(=O)C2)CC3)C1 [compound 109]
5,82.9%,N#CN1CC[C@@H](C(=O)Nc2nc3c(s2)CN(C(=O)c2occc2COc2ccccc2)CC3)C1 [compound 111]
6,68.7%,N#CN1CC[C@@H](C(=O)Nc2nc3c(s2)CN(C(=O)C2CCN(C(=O)CCOc4ccccc4)CC2)CC3)C1 [compound 113]
7,68.2%,Cn1cc(S(=O)(=O)N2CCCC(C(=O)N3CCc4nc(NC(=O)[C@@H]5CCN(C#N)C5)sc4C3)C2)cn1 (some centres unmarked) [compound 114]
8,81%,N#CN1CC[C@@H](C(=O)Nc2nc3c(s2)CN(C(=O)c2cc(S(=O)(=O)N4CCOCC4)c[nH]2)CC3)C1 [compound 115]
9,81.9%,COc1ccc(OCc2cc(C)on2)c(C(=O)N2CCc3nc(NC(=O)[C@@H]4CCN(C#N)C4)sc3C2)c1 [compound 116]
10,71.4%,N#CN1CC[C@@H](C(=O)Nc2nc3c(s2)CN(C(=O)C2CC(=O)N(CCN4CCOCC4)C2)CC3)C1 (some centres unmarked) [compound 117]
11,83.7%,N#CN1CC[C@@H](C(=O)Nc2nc3c(s2)CN(C(=O)Cc2cccc(OCc4cccnc4)c2)CC3)C1 [compound 118]
12,71.9%,CN(Cc1cccnc1)S(=O)(=O)c1cc(C(=O)N2CCc3nc(NC(=O)[C@@H]4CCN(C#N)C4)sc3C2)n(C)c1 [compound 119]
13,46.4%,Cc1n[nH]c(C)c1S(=O)(=O)N1CCC(C(=O)N2CCc3nc(NC(=O)[C@@H]4CCN(C#N)C4)sc3C2)CC1 [compound 120]
14,70.9%,N#CN1CC[C@@H](C(=O)Nc2nc3c(s2)CN(C(=O)c2occc2CN2CCOCC2)CC3)C1 [compound 122]
15,67.6%,N#CN1CC[C@@H](C(=O)Nc2nc3c(s2)CN(C(=O)c2ccc(COc4ccccc4Br)cc2)CC3)C1 [compound 123]
16,85.6%,N#CN1CC[C@@H](C(=O)Nc2nc3c(s2)CN(C(=O)c2cccc(-c4cnco4)c2)CC3)C1 [compound 124]
17,85.7%,N#CN1CC[C@@H](C(=O)Nc2nc3c(s2)CN(C(=O)c2ccc(N4NC(=O)CCC4=O)cc2)CC3)C1 [compound 125]

row,inhibition at 1.25 µM,Compound
1,70.6%,Cc1nc(C(=O)N2CCc3nc(NC(=O)[C@@H]4CCN(C#N)C4)sc3C2)co1 [compound 126]
2,83.8%,N#CN1CC[C@@H](C(=O)Nc2nc3c(s2)CN(C(=O)c2ccc(=O)n(Cc4ccccc4)n2)CC3)C1 [compound 127]
3,76.5%,Cc1nc(-c2cccnc2)sc1C(=O)N1CCc2nc(NC(=O)[C@@H]3CCN(C#N)C3)sc2C1 [compound 128]
4,71.3%,CN1CCN(C(=O)c2ccccc2C(=O)N2CCc3nc(NC(=O)[C@@H]4CCN(C#N)C4)sc3C2)CC1 [compound 129]
5,76.2%,Cc1cc(C(=O)N2CCc3nc(NC(=O)[C@@H]4CCN(C#N)C4)sc3C2)c(C)n1-c1ccon1 [compound 130]
6,73.2%,N#CN1CC[C@@H](C(=O)Nc2nc3c(s2)CN(C(=O)c2ccnn2C2CCOCC2)CC3)C1 [compound 132]
7,87.6%,Cn1nc(C(=O)N2CCOCC2)cc1C(=O)N1CCc2nc(NC(=O)[C@@H]3CCN(C#N)C3)sc2C1 [compound 134]
8,63%,Cc1nn(C2CCOCC2)c(C)c1C(=O)N1CCc2nc(NC(=O)[C@@H]3CCN(C#N)C3)sc2C1 [compound 135]
9,80.8%,N#CN1CC[C@@H](C(=O)Nc2nc3c(s2)CN(C(=O)C2CCOC4(CCC4)C2)CC3)C1 (some centres unmarked) [compound 136]
10,70.1%,N#CN1CC[C@@H](C(=O)Nc2nc3c(s2)CN(C(=O)c2cnn(CCN4CCCC4)c2)CC3)C1 [compound 137]
11,81.9%,N#CN1CC[C@@H](C(=O)Nc2nc3c(s2)CN(C(=O)C2(c4cccs4)CC2)CC3)C1 [compound 138]
12,59.5%,N#CN1CC[C@@H](C(=O)Nc2nc3c(s2)CN(C(=O)C(c2ccccc2)n2cnnn2)CC3)C1 (some centres unmarked) [compound 141]
13,85.9%,Cc1csc(N2CCCC(C(=O)N3CCc4nc(NC(=O)[C@@H]5CCN(C#N)C5)sc4C3)C2)n1 (some centres unmarked) [compound 142]
14,64.1%,CC(C(=O)N1CCc2nc(NC(=O)[C@@H]3CCN(C#N)C3)sc2C1)n1nc(C(F)(F)F)cc1C1CC1 (some centres unmarked) [compound 143]
15,78.4%,N#CN1CC[C@@H](C(=O)Nc2nc3c(s2)CN(C(=O)C2CCCN2C(=O)Cc2ccccc2)CC3)C1 (some centres unmarked) [compound 144]
16,83.7%,N#CN1CC[C@@H](C(=O)Nc2nc3c(s2)CN(C(=O)CC2(n4cccc4)CCCCC2)CC3)C1 [compound 145]
